# Laboratory results from patent publication US20160106695A1, “PETROSELINIC ACID OR A COMBINATION OF ACTIVE INGREDIENTS COMPRISING AT LEAST PETROSELINIC ACID FOR PROMOTING WEIGHT LOSS AND/OR WEIGHT MAINTENANCE” (NESTEC SA, priority 2013, published 2016).
# Tested on: lipoxin A4 production by mononuclear blood cells
# Assay: Synthesis/release of lipoxin A4 by stimulated (PMA/A23187 + DHA/EPA) mononuclear blood cells, LC-MS quantification
# Assay type: cell-based
# Conditions: 30 min pre-incubation, 2 hours of stimulation
# Procedure: Mononuclear blood cells are cultured under 5% CO2 and at 37° C. in a serum-free medium for macrophages (SFM Macrophage; Invitrogen 12065074) for 24 hours.
# After this step, the medium is replaced with the same fresh test medium also containing the active agents at the various doses for 30 minutes in the presence of the various products to be evaluated, as indicated in the table of results below. The inflammatory response was then triggered in the presence of phorbol myristate (0.05 μM) and calcium ionophore (1 μM) and of a lipid substrate mixture composed of docosahexaenoic acid (DHA—1 μg/mL) and eicosapentaenoic acid (EPA—1 μg/mL).
# The supernatants were then collected after 2 hours of stimulation and frozen at −80° C. before preparation for analysis by mass spectrometry.
# Experimental triplicates (three wells) were prepared per experimental condition. Into each culture plate was placed a control corresponding to cells stimulated with the PMA/A23187 mixture and/or with addition of the equimolar mixture of fatty acids.
# The thawed supernatants were concentrated by solid-phase extraction (SPE) and taken up in methanol before spectrometric analysis. The analytical method used consists in separating the various analytes by high-pressure liquid chromatography as a function of their retention time and in quantifying them by mass spectrometry. […]
Compound,Level of lipoxin A4 production (% modulation relative to the control) (taurine 3.1 mg/ml),Level of lipoxin A4 production (% modulation relative to the control) (zinc gluconate 0.005 mg/ml) [%]
NCCS(=O)(=O)O [Taurine],+38%,
Zinc gluconate,,−5
